Measurements reported in PubChem BioAssay AID330 (DTP/NCI, 2004).
“And” between values parts separate entries of the source, which are not always exact repeats. Equal entries are not always repeated. Toxic doses and inconclusive results are not listed. Rule for the calls: active = survival T/C of 150% or more; inactive = T/C below 125% in these data.

Tested on: P388 leukemia ip, CD2F1 mice, survival T/C
Test: NCI In Vivo Anticancer Drug Screen. Data for tumor model P388 Leukemia (intraperitoneal) in CD2F1 (CDF1) mice
Details: endpoint: median survival time, higher = longer survival
Outline: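 Mice carrying the transplanted tumor received test compound or vehicle. Survival was recorded in each group, and the value is the treated-group measurement divided by that of the vehicle-treated control group.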

[1] = dose: 50.0 mg/kg/injection, schedule: Q01DX009 (ip), vehicle: saline
[2] = dose: 100.0 mg/kg/injection, schedule: Q01DX009 (ip), vehicle: saline
[3] = dose: 200.0 mg/kg/injection, schedule: Q01DX009 (ip), vehicle: saline
[4] = dose: 60.0 mg/kg/injection, schedule: Q01DX005 (ip), vehicle: saline with Tween-80
[5] = dose: 120.0 mg/kg/injection, schedule: Q01DX005 (ip), vehicle: saline with Tween-80
[6] = dose: 240.0 mg/kg/injection, schedule: Q01DX005 (ip), vehicle: saline with Tween-80
[7] = dose: 12.5 mg/kg/injection, schedule: Q01DX009 (ip), vehicle: other
[8] = dose: 25.0 mg/kg/injection, schedule: Q01DX009 (ip), vehicle: other
[9] = dose: 50.0 mg/kg/injection, schedule: Q01DX009 (ip), vehicle: other
[10] = dose: 100.0 mg/kg/injection, schedule: Q01DX009 (ip), vehicle: other
[11] = dose: 200.0 mg/kg/injection, schedule: Q01DX009 (ip), vehicle: other
[12] = dose: 50.0 mg/kg/injection, schedule: Q01DX009 (ip), vehicle: saline with Tween-80
[13] = dose: 100.0 mg/kg/injection, schedule: Q01DX009 (ip), vehicle: saline with Tween-80
[14] = dose: 200.0 mg/kg/injection, schedule: Q01DX009 (ip), vehicle: saline with Tween-80
[15] = dose: 50.0 mg/kg/injection, schedule: Q01DX009 (ip), vehicle: Klucel (hydroxypropylcellulose) (HPC)
[16] = dose: 100.0 mg/kg/injection, schedule: Q01DX009 (ip), vehicle: Klucel (hydroxypropylcellulose) (HPC)
[17] = dose: 200.0 mg/kg/injection, schedule: Q01DX009 (ip), vehicle: Klucel (hydroxypropylcellulose) (HPC)

Measured: T/C

Cc1ncc(Cl)c2cc3ccccc3cc12
inactive: [1] 101 % of control and 89 % of control | [2] 99 % of control | [3] 99 % of control and 94 % of control

NC(N)=NS(=O)(=O)c1ccc(N=Cc2c3ccccc3nc3ccccc23)cc1
inactive: dose: 12.5 mg/kg/injection, schedule: Q04DX002 (ip), vehicle: Klucel (hydroxypropylcellulose) (HPC) 99 % of control | dose: 25.0 mg/kg/injection, schedule: Q04DX002 (ip), vehicle: Klucel (hydroxypropylcellulose) (HPC) 94 % of control | dose: 50.0 mg/kg/injection, schedule: Q04DX002 (ip), vehicle: Klucel (hydroxypropylcellulose) (HPC) 96 % of control | dose: 100.0 mg/kg/injection, schedule: Q04DX002 (ip), vehicle: Klucel (hydroxypropylcellulose) (HPC) 96 % of control | dose: 200.0 mg/kg/injection, schedule: Q04DX002 (ip), vehicle: Klucel (hydroxypropylcellulose) (HPC) 92 % of control | dose: 400.0 mg/kg/injection, schedule: Q04DX002 (ip), vehicle: Klucel (hydroxypropylcellulose) (HPC) 96 % of control

CC(SCc1ccccc1)C(NC(=O)CCl)C(=O)O (centres undefined)
inactive: dose: 100.0 mg/kg/injection, schedule: Q01DX001 (ip), vehicle: saline with Tween-80 100 % of control | dose: 200.0 mg/kg/injection, schedule: Q01DX001 (ip), vehicle: saline with Tween-80 97 % of control | dose: 400.0 mg/kg/injection, schedule: Q01DX001 (ip), vehicle: saline with Tween-80 91 % of control

N#CC1(NC(=O)C(Cl)Cl)c2ccccc2-c2ccccc21
inactive: [4] 100 % of control | [5] 93 % of control

COc1c(-c2ccccc2)c(=O)n2c3cc(C)c(C)cc3n(C)c2c1C#N
inactive: [4] 100 % of control | [5] 86 % of control | [6] 89 % of control

O=C(CNC(=O)n1ccnc1)N/N=C/c1ccco1
inactive: dose: 50.0 mg/kg/injection, schedule: Q01DX005 (ip), vehicle: saline with Tween-80 95 % of control | dose: 100.0 mg/kg/injection, schedule: Q01DX005 (ip), vehicle: saline with Tween-80 92 % of control | dose: 200.0 mg/kg/injection, schedule: Q01DX005 (ip), vehicle: saline with Tween-80 89 % of control

COc1ccc(C(=O)OC2(C)CC(C)(C)N=[N+]2[O-])cc1 (centres undefined)
inactive: [7] 108 % of control | [8] 113 % of control | [9] 115 % of control | dose: 66.0 mg/kg/injection, schedule: Q01DX009 (ip), vehicle: other 102 % of control | [10] 100 % of control | dose: 150.0 mg/kg/injection, schedule: Q01DX009 (ip), vehicle: other 92 % of control | [11] 113 % of control

COC(=O)Nc1cnc(C=O)c(C)c1-c1ccc(OC)c(OC)c1OCc1ccccc1
inactive: [7] 111 % of control | [8] 119 % of control | [9] 110 % of control | [10] 103 % of control | [11] 117 % of control | dose: 400.0 mg/kg/injection, schedule: Q01DX009 (ip), vehicle: other 90 % of control

CCOC(=O)/C(C#N)=C\c1ccc(OCc2ccccc2)c(OCc2ccccc2)c1
inactive: dose: 12.5 mg/kg/injection, schedule: Q01DX005 (ip), vehicle: distilled water + alcohol 93 % of control | dose: 25.0 mg/kg/injection, schedule: Q01DX005 (ip), vehicle: distilled water + alcohol 87 % of control | dose: 50.0 mg/kg/injection, schedule: Q01DX005 (ip), vehicle: distilled water + alcohol 88 % of control | dose: 100.0 mg/kg/injection, schedule: Q01DX005 (ip), vehicle: Klucel (hydroxypropylcellulose) (HPC) 89 % of control | dose: 200.0 mg/kg/injection, schedule: Q01DX005 (ip), vehicle: Klucel (hydroxypropylcellulose) (HPC) 91 % of control

COc1cc(Cc2n[nH]c(=S)n2-c2ccccc2)c(S(=O)(=O)N2CCOCC2)cc1OC
inactive: dose: 60.0 mg/kg/injection, schedule: Q01DX005 (ip), vehicle: saline 102 % of control | dose: 120.0 mg/kg/injection, schedule: Q01DX005 (ip), vehicle: saline 95 % of control | dose: 240.0 mg/kg/injection, schedule: Q01DX005 (ip), vehicle: saline 95 % of control

COc1ccccc1/C(=N/Nc1ccccc1)[N+](=O)[O-]
inactive: dose: 50.0 mg/kg/injection, schedule: Q01DX009 (ip), vehicle: saline + Tween-80 + alcohol 106 % of control | dose: 100.0 mg/kg/injection, schedule: Q01DX009 (ip), vehicle: saline + Tween-80 + alcohol 101 % of control | dose: 200.0 mg/kg/injection, schedule: Q01DX009 (ip), vehicle: saline + Tween-80 + alcohol 109 % of control

COc1cc(C2c3cc4c(cc3OC(N3CCCC3)C2C)OCO4)cc(OC)c1OC (centres undefined)
inactive: [4] 90 % of control | [5] 93 % of control | [6] 104 % of control

Cc1cccc(=N)n1CCC(=O)O
inactive: [2] 90 % of control | [3] 100 % of control

CCCCCCCCCC(O)CCCCCCCCC
inactive: dose: 100.0 mg/kg/injection, schedule: Q04DX003 (ip), vehicle: other 100 % of control | dose: 200.0 mg/kg/injection, schedule: Q04DX003 (ip), vehicle: other 90 % of control | dose: 400.0 mg/kg/injection, schedule: Q04DX003 (ip), vehicle: other 90 % of control

O=C(/C=C\N(c1ccccc1)c1ccccc1)c1ccccc1
inactive: [12] 90 % of control | [13] 93 % of control | [14] 94 % of control

COc1ncc(Br)cc1C(=O)NCCc1ccc(S(=O)(=O)NC(=O)NC2CCCCC2)cc1
inactive: [12] 99 % of control | [13] 92 % of control

Cc1cc(C)c2c(c1N)C(=O)CCO2
inactive: dose: 7.5 mg/kg/injection, schedule: Q01DX005 (ip), vehicle: saline with Tween-80 96 % of control | dose: 15.0 mg/kg/injection, schedule: Q01DX005 (ip), vehicle: saline with Tween-80 100 % of control | dose: 30.0 mg/kg/injection, schedule: Q01DX005 (ip), vehicle: saline with Tween-80 102 % of control

CC1(C)N=C(N)N=C(N)N1c1ccc(Cl)cc1Cl
inactive: dose: 12.0 mg/kg/injection, schedule: Q01DX005 (ip), vehicle: saline 102 % of control | dose: 25.0 mg/kg/injection, schedule: Q01DX005 (ip), vehicle: saline 100 % of control | dose: 50.0 mg/kg/injection, schedule: Q01DX005 (ip), vehicle: saline 104 % of control and 98 % of control

O=C1CCSCC1
inactive: [12] 99 % of control | [13] 113 % of control | [14] 100 % of control | dose: 400.0 mg/kg/injection, schedule: Q01DX009 (ip), vehicle: saline with Tween-80 98 % of control

Cc1cc(C)c2c(c1)sc1n[nH]c(=S)n12
inactive: [15] 98 % of control | [16] 90 % of control | [17] 90 % of control

CC(C)c1ccc(C2NC(=S)NC(=O)C2C#N)cc1 (centres undefined)
inactive: [1] 101 % of control | [2] 100 % of control | [3] 98 % of control

CCOC(=O)Nc1ccc2nc(-c3cscn3)[nH]c2c1
inactive: [1] 101 % of control | [2] 112 % of control | [3] 115 % of control

O=C1CNC(=O)c2cc(Cl)ccc2N1
inactive: [15] 103 % of control | [16] 97 % of control | [17] 100 % of control
